Results: ChEMBL document CHEMBL5715954, “Silencing c-Myc translation as a therapeutic strategy through targeting PI3Kδ and CK1ε in hematological malignancies” (Blood, 2017)

Legend:
Design in all cases: scale not given: the % may be the effect or the level left
[1] = biological target: Dual specificity protein kinase CLK3 (Homo sapiens) (UniProt P49761); test: Inhibition of human CLK3 assessed as enzyme activity at 1 uM using myelin basic protein as substrate preincubated for 20 mins followed by [gamma-33P]-ATP addition and measured after 120 mins by radiometric Hot-SpotSM Kinase assay relative to control
Sequence of Dual specificity protein kinase CLK3 (Homo sapiens) (P49761 whole entry, looked up): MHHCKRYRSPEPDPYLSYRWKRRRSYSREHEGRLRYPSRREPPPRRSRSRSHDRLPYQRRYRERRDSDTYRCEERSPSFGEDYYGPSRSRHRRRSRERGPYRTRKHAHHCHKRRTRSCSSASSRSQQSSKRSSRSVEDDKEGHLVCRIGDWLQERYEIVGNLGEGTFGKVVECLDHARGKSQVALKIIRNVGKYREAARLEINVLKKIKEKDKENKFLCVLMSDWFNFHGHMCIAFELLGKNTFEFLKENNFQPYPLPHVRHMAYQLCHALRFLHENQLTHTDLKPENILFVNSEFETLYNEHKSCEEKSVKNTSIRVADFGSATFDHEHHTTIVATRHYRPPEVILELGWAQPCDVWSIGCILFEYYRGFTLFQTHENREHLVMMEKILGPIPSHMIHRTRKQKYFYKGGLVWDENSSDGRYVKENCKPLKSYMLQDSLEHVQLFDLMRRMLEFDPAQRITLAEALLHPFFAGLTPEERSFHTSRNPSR

[2] = biological target: Tyrosine-protein kinase CSK (Homo sapiens) (UniProt P41240); test: Inhibition of human CSK assessed as enzyme activity at 1 uM using poly[Glu:Tyr] (4:1) as substrate preincubated for 20 mins followed by [gamma-33P]-ATP addition and measured after 120 mins by radiometric Hot-SpotSM Kinase assay relative to control
Sequence of Tyrosine-protein kinase CSK (Homo sapiens) (P41240 2-450 limits assumed): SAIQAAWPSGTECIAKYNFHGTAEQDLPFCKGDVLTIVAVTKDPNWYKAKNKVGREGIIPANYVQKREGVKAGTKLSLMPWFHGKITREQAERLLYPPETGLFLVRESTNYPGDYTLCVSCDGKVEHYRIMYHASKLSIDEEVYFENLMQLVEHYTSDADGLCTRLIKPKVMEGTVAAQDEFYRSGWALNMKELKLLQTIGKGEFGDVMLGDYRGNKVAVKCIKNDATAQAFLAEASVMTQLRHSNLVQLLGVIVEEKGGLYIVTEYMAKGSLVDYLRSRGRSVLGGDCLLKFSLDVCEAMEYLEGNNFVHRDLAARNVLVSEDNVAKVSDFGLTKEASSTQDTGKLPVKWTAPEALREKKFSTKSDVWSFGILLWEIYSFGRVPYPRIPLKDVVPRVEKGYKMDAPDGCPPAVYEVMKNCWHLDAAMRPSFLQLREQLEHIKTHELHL

[3] = biological target: Serine/threonine-protein kinase/endoribonuclease IRE2 (Homo sapiens) (UniProt Q76MJ5); test: Inhibition of human ERN2/IRE2 assessed as enzyme activity at 1 uM using myelin basic protein as substrate preincubated for 20 mins followed by [gamma-33P]-ATP addition and measured after 120 mins by radiometric Hot-SpotSM Kinase assay relative to control
Sequence of Serine/threonine-protein kinase/endoribonuclease IRE2 (Homo sapiens) (Q76MJ5 35-926 limits assumed): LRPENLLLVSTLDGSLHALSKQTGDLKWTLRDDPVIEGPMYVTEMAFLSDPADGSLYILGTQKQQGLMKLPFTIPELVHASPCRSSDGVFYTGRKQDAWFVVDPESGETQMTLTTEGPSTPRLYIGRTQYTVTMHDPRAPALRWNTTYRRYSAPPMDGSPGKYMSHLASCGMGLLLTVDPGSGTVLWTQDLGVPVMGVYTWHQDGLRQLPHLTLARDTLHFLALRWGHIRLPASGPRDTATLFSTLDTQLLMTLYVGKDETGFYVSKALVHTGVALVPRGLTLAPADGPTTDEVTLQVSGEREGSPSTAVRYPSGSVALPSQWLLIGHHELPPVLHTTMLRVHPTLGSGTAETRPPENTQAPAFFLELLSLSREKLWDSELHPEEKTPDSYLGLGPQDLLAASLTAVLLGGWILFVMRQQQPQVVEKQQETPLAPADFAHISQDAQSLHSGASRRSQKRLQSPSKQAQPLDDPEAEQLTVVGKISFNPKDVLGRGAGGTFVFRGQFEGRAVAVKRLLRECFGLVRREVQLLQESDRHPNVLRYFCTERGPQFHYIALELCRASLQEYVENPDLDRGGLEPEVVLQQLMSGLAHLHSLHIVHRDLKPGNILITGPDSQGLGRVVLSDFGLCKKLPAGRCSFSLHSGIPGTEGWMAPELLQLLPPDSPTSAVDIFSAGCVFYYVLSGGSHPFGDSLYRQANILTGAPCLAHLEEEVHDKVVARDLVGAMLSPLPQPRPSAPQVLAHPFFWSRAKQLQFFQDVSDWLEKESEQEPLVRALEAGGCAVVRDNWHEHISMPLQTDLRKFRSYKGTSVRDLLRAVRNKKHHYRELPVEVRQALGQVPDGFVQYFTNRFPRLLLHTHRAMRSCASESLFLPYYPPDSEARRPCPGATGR

[4] = biological target: MAP kinase-activated protein kinase 2 (Homo sapiens) (UniProt P49137); test: Inhibition of human MAPKAPK2 assessed as enzyme activity at 1 uM using KKLNRTLSVA as substrate preincubated for 20 mins followed by [gamma-33P]-ATP addition and measured after 120 mins by radiometric Hot-SpotSM Kinase assay relative to control
Sequence of MAP kinase-activated protein kinase 2 (Homo sapiens) (P49137 whole entry, looked up, the tested form may be a part): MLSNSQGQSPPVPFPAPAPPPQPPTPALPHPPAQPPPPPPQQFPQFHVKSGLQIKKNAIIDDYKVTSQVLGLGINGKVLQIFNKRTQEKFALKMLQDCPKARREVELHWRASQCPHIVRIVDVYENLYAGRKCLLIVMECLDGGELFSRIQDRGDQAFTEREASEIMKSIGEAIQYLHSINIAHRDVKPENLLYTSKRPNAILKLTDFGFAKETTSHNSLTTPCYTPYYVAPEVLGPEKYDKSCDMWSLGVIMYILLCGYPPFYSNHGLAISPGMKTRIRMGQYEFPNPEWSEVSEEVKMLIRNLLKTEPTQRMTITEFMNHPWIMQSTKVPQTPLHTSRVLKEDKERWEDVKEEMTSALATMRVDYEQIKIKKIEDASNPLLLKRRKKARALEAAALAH

[5] = biological target: PAS domain-containing serine/threonine-protein kinase (Homo sapiens) (UniProt Q96RG2); test: Inhibition of human PASK assessed as enzyme activity at 1 uM using KKLNRTLSFAEPG as substrate preincubated for 20 mins followed by [gamma-33P]-ATP addition and measured after 120 mins by radiometric Hot-SpotSM Kinase assay relative to control
Sequence of PAS domain-containing serine/threonine-protein kinase (Homo sapiens) (Q96RG2 whole entry, the tested form may be a part): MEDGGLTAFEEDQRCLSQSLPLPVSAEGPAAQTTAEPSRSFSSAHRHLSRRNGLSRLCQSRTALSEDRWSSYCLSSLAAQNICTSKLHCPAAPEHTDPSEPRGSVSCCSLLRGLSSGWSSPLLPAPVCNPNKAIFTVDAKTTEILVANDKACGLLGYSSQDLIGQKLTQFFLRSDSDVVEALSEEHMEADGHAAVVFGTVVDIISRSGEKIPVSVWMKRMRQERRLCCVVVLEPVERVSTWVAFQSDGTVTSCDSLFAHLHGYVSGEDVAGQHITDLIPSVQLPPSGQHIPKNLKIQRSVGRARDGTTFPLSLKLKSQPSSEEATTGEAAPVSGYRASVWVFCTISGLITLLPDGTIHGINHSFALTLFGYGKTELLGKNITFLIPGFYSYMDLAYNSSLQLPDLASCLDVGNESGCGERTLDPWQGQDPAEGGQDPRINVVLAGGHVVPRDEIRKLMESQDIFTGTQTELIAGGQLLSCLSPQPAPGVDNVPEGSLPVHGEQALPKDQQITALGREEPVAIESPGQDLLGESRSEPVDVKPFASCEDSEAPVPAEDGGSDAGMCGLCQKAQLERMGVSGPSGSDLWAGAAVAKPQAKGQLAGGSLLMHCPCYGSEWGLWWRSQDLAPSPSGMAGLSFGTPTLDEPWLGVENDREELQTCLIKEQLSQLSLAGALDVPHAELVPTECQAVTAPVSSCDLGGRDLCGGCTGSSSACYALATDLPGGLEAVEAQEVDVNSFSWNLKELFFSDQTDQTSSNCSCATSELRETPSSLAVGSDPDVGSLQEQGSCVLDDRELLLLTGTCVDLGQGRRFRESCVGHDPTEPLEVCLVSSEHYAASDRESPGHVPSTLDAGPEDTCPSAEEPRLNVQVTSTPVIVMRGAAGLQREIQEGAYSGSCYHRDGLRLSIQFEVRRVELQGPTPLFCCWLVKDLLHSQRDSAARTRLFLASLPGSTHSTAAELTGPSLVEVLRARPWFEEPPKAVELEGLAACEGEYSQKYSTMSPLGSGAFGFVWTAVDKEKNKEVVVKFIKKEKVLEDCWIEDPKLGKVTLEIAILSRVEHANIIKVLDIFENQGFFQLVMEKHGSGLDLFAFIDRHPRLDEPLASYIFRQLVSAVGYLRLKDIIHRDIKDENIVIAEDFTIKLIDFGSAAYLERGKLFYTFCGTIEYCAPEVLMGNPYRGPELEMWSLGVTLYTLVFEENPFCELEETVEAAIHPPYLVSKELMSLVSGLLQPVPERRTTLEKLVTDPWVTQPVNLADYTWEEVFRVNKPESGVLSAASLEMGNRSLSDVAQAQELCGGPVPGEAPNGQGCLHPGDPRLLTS

[6] = biological target: Inactive tyrosine-protein kinase PEAK1 (Homo sapiens) (UniProt Q9H792); test: Inhibition of human PEAK1 assessed as enzyme activity at 1 uM using poly[Glu:Tyr] (4:1) as substrate preincubated for 20 mins followed by [gamma-33P]-ATP addition and measured after 120 mins by radiometric Hot-SpotSM Kinase assay relative to control
[7] = biological target: T1, Protein kinase C zeta type (Homo sapiens) (UniProt Q05513); test: Inhibition of human PKCzeta assessed as enzyme activity at 1 uM using ERMRPRKRQGSVRRRV as substrate preincubated for 20 mins followed by [gamma-33P]-ATP addition and measured after 120 mins by radiometric Hot-SpotSM Kinase assay relative to control
T1 sequence (whole entry): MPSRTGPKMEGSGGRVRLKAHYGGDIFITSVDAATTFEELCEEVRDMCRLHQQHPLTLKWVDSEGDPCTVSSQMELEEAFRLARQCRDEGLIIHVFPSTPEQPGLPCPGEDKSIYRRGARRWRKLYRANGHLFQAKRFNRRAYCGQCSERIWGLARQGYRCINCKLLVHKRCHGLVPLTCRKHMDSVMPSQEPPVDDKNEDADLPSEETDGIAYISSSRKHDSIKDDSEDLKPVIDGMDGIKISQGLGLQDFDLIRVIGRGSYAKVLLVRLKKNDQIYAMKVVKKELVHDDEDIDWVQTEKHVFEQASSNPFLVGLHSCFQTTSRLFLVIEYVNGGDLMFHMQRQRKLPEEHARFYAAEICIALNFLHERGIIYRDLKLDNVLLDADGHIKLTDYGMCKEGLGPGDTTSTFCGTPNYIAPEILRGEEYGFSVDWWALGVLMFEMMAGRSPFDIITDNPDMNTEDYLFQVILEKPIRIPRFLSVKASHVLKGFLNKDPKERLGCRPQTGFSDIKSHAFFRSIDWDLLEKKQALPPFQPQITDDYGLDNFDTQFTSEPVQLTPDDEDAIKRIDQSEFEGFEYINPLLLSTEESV

[8] = biological target: T2, cGMP-dependent protein kinase 1 (Homo sapiens) (UniProt Q13976); test: Inhibition of human PKG1b assessed as enzyme activity at 1 uM using LRRASLG as substrate preincubated for 20 mins followed by [gamma-33P]-ATP addition and measured after 120 mins by radiometric Hot-SpotSM Kinase assay relative to control
T2 sequence (whole entry): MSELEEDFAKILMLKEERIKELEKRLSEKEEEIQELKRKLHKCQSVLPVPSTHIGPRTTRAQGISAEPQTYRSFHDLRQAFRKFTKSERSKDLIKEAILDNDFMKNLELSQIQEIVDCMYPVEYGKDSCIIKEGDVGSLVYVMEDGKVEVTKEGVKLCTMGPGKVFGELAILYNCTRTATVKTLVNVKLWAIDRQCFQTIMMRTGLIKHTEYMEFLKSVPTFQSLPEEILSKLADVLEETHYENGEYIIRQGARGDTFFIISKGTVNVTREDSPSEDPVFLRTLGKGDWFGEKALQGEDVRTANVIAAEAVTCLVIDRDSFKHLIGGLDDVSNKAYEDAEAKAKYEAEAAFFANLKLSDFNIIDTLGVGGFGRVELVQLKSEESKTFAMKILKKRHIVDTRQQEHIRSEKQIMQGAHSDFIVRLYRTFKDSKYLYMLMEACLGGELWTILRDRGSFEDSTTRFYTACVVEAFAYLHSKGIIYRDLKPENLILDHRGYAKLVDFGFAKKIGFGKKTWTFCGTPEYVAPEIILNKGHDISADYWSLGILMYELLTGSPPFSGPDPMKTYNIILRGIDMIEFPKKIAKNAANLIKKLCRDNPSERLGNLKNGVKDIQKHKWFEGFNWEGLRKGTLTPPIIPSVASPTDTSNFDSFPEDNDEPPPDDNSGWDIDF

[9] = biological target: T3, Serine/threonine-protein kinase Sgk1 (Homo sapiens) (UniProt O00141); test: Inhibition of human SGK1 assessed as enzyme activity at 1 uM using KGSGSGRPRTSSFAEG as substrate preincubated for 20 mins followed by [gamma-33P]-ATP addition and measured after 120 mins by radiometric Hot-SpotSM Kinase assay relative to control
T3 sequence (whole entry): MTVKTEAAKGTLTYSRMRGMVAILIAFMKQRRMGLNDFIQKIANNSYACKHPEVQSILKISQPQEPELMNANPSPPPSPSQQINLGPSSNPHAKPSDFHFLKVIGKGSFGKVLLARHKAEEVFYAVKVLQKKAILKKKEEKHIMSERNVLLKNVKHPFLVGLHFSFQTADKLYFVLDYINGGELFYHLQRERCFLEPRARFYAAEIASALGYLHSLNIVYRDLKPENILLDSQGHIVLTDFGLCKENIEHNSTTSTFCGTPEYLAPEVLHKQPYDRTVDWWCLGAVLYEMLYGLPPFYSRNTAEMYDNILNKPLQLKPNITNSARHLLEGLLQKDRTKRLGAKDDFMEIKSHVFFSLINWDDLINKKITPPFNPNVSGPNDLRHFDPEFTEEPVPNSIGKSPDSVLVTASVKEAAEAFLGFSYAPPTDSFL

[10] = biological target: Tau-tubulin kinase 1 (Homo sapiens) (UniProt Q5TCY1); test: Inhibition of human TTBK1 assessed as enzyme activity at 1 uM using myelin basic protein as substrate preincubated for 20 mins followed by [gamma-33P]-ATP addition and measured after 120 mins by radiometric Hot-SpotSM Kinase assay relative to control
Sequence of Tau-tubulin kinase 1 (Homo sapiens) (Q5TCY1 whole entry): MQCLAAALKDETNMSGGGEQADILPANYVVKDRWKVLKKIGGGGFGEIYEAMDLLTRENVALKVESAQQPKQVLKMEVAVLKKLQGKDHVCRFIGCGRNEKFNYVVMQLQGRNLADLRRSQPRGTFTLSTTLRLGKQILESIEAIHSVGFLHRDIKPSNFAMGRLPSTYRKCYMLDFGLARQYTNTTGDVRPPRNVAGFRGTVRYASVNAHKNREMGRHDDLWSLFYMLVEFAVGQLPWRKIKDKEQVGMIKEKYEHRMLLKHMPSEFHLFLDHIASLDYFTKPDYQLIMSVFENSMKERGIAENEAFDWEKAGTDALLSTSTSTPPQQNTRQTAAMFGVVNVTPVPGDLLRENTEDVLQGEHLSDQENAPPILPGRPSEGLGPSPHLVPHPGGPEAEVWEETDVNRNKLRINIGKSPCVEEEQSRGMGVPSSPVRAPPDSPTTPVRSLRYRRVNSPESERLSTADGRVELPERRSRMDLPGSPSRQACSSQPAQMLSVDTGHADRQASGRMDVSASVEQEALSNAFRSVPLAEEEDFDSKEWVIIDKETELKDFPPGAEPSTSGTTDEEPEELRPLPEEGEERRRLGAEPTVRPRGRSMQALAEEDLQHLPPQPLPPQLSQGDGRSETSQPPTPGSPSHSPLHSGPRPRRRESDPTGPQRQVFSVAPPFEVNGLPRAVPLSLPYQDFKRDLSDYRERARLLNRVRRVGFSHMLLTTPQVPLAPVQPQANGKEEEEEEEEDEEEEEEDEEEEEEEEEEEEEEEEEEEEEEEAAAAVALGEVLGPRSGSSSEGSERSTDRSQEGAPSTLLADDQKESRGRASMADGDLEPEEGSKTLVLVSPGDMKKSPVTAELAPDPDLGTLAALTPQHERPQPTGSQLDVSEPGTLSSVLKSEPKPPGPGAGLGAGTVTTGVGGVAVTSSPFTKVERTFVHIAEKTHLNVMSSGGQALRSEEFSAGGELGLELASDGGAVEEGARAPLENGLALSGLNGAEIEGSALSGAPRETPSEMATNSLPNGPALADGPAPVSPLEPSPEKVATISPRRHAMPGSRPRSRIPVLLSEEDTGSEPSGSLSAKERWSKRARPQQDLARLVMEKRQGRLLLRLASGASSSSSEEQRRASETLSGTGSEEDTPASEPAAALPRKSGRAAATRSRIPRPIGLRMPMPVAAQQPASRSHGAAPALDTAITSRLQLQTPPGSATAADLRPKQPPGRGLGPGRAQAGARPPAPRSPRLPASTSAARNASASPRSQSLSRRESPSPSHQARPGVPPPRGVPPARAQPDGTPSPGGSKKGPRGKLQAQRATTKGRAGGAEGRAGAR

| Compound | Activity [1] | Activity [2] | Activity [3] | Activity [4] | Activity [5] | Activity [6] | Activity [7] | Activity [8] | Activity [9] | Activity [10] |
| --- | --- | --- | --- | --- | --- | --- | --- | --- | --- | --- |
| CC[C@H](Nc1ncnc2[nH]cnc12)c1nc2cccc(F)c2c(=O)n1-c1ccccc1 | 89% | 99.1% | 100% | 96.2% | 99.6% | 93.3% | 91.5% | 99.8% | 105% | 95.8% |
| C[C@H](Nc1ncnc2nc[nH]c12)c1cc2cccc(Cl)c2c(=O)n1-c1ccccc1 | 92.3% | 97.9% | 96.5% | 96.5% | 95.3% | 89.4% | 89.9% | 95.9% | 102% | 97.8% |
| CC(C)Oc1ccc(-c2nn([C@@H](C)c3oc4ccc(F)cc4c(=O)c3-c3cccc(F)c3)c3ncnc(N)c23)cc1F [UMBRALISIB] | 93.7% | 94.1% | 98.3% | 91.4% | 98.7% | 95% | 93.6% | 90.3% | 102% | 103% |
